Assay results reported in ChEMBL document CHEMBL1201862, “PubChem BioAssay data set” (2004).
One block for each molecule: values may come before it. Activity calls are given as the source filed them.

Columns and labels:
[1] = target: Beta-galactosidase (Escherichia coli, UniProt Q8VNN2); experiment: Dose response counterscreen for EBI2 assay utilizing the enzyme, b-galactosidase.; assay type: functional
[2] = cells; assay type: functional, cell-based
[3] = target: T1, Trace amine-associated receptor 1 (Homo sapiens, UniProt Q96RJ0); experiment: Fluorescence-based cell-based high throughput dose response assay to identify agonists of the human trace amine associated receptor 1 (TAAR1).; assay type: functional
T1 sequence (Q96RJ0 whole entry): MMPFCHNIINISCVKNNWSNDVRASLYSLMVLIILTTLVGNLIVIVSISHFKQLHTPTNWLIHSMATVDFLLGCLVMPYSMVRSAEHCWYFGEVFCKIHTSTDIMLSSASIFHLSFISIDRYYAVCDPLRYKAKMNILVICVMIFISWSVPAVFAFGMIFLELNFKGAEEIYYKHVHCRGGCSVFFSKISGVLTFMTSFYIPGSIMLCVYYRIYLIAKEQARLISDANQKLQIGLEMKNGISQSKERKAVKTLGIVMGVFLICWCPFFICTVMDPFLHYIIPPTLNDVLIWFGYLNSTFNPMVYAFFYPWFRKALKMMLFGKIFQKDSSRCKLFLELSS

[4] = target: T1, Trace amine-associated receptor 1; experiment: Counterscreen for agonists of the human trace amine associated receptor 1 (hTAAR1): Fluorescence-based cell-based high throughput dose response assay to identify hTAAR1 agonist that also desensitize TAAR1 receptor response.; assay type: functional
[5] = cells; assay type: functional, cell-based; remark: listed apart in the source
[6] = target: T2, Leucine aminopeptidase (Plasmodium falciparum 3D7, UniProt Q8IL11); experiment: P. falciparum M17LAP inhibitors, primary screen, biochemical, fluorogenic H-Leu-NHMec substrate, 1536-well (AID 1619); assay type: functional
T2 sequence (Q8IL11 whole entry): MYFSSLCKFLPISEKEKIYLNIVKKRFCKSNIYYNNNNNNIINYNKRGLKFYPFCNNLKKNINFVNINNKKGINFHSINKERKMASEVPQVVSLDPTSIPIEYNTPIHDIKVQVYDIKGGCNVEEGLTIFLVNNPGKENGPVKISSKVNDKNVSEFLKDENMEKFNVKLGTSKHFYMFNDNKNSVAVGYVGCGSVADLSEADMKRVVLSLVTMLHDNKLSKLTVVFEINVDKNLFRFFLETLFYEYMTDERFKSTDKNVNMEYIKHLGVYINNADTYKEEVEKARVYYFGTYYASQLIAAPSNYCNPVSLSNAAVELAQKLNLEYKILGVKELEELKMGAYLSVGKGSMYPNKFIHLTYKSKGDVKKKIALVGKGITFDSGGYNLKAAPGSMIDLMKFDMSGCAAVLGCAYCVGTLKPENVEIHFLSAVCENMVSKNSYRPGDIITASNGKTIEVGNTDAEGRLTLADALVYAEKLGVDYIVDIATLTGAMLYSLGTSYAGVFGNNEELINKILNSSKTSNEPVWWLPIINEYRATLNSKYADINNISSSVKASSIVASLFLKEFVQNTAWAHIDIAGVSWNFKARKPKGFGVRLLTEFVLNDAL

[7] = tested on: Escherichia coli; experiment: microbe, parasite or virus in culture
[8] = target: Cytochrome P450 3A4 (Homo sapiens, UniProt P08684);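 also: CYP3A4 tested as one member of a cytochrome P450 panel screen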
Sequence of Cytochrome P450 3A4 (P08684 whole entry): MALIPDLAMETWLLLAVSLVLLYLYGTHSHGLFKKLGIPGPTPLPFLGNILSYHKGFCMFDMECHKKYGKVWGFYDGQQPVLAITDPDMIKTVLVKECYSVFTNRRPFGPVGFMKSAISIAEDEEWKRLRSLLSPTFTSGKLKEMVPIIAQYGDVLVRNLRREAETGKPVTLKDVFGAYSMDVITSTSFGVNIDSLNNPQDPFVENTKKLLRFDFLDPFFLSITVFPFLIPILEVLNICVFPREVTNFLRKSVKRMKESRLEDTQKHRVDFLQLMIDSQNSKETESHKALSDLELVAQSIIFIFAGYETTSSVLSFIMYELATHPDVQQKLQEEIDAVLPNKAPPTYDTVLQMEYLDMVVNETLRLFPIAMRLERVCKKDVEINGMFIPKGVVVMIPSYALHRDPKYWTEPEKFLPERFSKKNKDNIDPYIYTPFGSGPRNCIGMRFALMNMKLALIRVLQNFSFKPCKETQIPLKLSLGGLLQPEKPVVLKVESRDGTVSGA

[9] = target: Glyceraldehyde-3-phosphate dehydrogenase (Homo sapiens, UniProt P04406)
Sequence of Glyceraldehyde-3-phosphate dehydrogenase (P04406 whole entry): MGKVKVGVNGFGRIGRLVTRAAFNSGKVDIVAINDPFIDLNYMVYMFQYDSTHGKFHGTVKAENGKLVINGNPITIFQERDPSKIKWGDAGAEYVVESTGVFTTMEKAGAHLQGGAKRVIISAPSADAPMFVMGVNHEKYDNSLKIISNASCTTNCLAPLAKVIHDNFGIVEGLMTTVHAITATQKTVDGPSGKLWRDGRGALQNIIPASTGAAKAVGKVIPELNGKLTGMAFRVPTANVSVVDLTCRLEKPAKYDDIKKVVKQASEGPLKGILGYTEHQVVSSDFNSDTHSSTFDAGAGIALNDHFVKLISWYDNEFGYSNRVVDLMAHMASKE

[10] = target: T3, Alkaline phosphatase, tissue-nonspecific isozyme (Homo sapiens, UniProt P05186); experiment: potency against alkaline phosphatase TNAP – biochemical, luminescent, dose response, SAR follow-up (AID 1056)
T3 sequence (P05186 whole entry): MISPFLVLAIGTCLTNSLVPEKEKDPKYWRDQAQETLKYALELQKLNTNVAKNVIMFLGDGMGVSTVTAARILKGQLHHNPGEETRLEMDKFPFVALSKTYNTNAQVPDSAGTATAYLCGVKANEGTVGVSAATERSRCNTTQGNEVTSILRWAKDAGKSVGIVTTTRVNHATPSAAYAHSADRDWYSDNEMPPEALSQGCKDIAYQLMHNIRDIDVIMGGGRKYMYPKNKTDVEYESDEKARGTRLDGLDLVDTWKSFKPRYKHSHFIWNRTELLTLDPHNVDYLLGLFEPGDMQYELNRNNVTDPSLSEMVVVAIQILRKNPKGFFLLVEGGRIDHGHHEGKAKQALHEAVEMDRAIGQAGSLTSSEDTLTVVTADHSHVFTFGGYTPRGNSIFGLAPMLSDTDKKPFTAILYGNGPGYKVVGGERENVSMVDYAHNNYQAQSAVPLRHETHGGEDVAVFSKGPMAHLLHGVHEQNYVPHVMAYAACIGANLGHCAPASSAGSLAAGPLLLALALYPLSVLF

[11] = Trypanosoma cruzi growth suppression in host cells – NIH3T3 host cells, beta-gal luminescence, confirmation (AID 2044); assay type: functional, cell-based;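 also: intracellular parasites grown in NIH/3T3 mouse fibroblasts as host cells; luminescent beta-galactosidase reporter signal from transgenic T. cruzi replicating inside host cells; inhibitors lower the luminescence signal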
[12] = NIH3T3 cell viability loss – ATP luminescence, mouse fibroblasts, counter-screen, dose response (AID 2010); assay type: functional, cell-based;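 also: cells exposed to compound for about 90 hours before reading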
[13] = target: T4, Short transient receptor potential channel 4 (Mus musculus, UniProt Q9QUQ5); experiment: block of DAMGO-driven TRPC4 calcium entry – cell-based, HEK293 TRPC4/mu-opioid, Fluo-4 calcium, dose response (AID 434942); assay type: functional;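 also: potency of inhibitors blocking the TRPC4 calcium response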
T4 sequence (Q9QUQ5 whole entry): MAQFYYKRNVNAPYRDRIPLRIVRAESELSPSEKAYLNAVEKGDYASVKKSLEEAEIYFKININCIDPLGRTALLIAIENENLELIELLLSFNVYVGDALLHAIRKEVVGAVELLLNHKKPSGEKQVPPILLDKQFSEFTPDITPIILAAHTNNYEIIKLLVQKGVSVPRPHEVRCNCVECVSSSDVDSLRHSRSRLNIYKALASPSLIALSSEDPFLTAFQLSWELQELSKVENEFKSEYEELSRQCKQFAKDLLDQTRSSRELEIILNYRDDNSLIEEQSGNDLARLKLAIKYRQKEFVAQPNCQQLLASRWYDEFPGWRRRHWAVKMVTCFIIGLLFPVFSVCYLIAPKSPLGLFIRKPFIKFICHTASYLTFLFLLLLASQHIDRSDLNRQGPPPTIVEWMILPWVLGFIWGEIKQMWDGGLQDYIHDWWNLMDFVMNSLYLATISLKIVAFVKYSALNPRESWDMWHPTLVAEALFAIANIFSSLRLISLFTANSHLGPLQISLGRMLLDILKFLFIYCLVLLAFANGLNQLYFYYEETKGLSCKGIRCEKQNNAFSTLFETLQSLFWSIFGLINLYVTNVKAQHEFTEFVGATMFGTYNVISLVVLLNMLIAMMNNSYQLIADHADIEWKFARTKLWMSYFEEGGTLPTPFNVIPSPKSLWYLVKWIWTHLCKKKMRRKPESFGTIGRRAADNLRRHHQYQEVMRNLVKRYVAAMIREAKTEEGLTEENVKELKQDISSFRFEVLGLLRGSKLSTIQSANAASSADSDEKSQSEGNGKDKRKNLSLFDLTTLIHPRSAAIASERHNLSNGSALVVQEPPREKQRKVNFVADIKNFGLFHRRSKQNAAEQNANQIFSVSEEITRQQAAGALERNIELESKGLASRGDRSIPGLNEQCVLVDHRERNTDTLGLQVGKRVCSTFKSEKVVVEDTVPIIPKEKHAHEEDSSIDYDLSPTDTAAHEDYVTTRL

[14] = HEK-293T viability loss after treatment – luminescence, T-cell screen hits, cytotoxicity control for TCR NF-kB inhibitor project, dose response (AID 489026); assay type: functional, cell-based;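 also: cells exposed to compound about 14 hours before the viability readout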

Sequence of Beta-galactosidase (Q8VNN2 whole entry): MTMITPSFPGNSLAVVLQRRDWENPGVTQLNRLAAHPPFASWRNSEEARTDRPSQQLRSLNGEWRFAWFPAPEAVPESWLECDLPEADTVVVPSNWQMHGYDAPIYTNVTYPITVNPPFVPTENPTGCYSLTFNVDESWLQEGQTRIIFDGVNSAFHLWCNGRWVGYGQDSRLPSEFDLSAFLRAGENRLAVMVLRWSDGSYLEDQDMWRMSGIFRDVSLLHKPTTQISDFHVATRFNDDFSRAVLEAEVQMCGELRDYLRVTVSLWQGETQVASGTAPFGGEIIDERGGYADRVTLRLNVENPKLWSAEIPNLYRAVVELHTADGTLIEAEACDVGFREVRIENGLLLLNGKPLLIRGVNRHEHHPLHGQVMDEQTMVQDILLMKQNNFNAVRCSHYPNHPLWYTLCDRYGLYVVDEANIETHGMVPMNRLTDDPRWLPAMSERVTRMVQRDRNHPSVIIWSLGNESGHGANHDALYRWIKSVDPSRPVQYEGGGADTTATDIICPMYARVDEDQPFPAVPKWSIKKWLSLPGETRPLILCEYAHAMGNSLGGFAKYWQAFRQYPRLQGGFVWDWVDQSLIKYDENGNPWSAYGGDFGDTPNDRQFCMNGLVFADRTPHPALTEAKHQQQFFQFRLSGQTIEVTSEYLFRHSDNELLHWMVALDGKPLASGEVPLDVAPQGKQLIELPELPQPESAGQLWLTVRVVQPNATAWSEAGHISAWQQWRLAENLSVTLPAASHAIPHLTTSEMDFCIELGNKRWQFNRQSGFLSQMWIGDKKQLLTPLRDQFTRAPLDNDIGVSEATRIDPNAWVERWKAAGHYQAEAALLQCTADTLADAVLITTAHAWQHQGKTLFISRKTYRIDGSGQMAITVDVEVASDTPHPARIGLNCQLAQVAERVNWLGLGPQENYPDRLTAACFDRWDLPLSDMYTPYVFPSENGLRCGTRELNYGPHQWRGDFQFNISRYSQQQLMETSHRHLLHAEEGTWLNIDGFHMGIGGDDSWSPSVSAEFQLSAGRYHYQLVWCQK

IC50 [1]: > 80 µM (inactive)
SMILES: Cc1cc(C)c(S(=O)(=O)N2CCN(C(=O)c3cc4ccccc4o3)CC2)c(C)c1

IC50 [6]: 14.3 µM (active)
SMILES: Cc1cc(C(=O)OCC(=O)N2C(C)CCCC2C)c(C)o1 (stereo not drawn)

IC50 [6]: 3.71 µM (active)
SMILES: CC1=C(C)CC(C(=O)Nc2nc(-c3ccc(C)cc3C)c(C)s2)C(C(=O)O)C1 (stereo not drawn)

AC50 [8]: inconclusive
SMILES: O=C(CCNC(=O)Cn1ccc2ccccc2c1=O)NCCCN1CCN(c2ccc(F)cc2)CC1

IC50 [1]: > 80 µM (inactive)
SMILES: O=C(c1cc(=O)c2cc(Cl)ccc2o1)N1CCN(Cc2ccccc2)CC1

IC50 [1]: > 80 µM (inactive)
SMILES: COc1ccc(N(CC(=O)NCCSc2ccccc2)S(=O)(=O)c2ccccc2)cc1

IC50 [9]: > 100 µM (not active) | IC50 [10]: 17.6 µM (active)
SMILES: CCc1ccc(-c2cc(C(=O)O)[nH]n2)cc1

The remaining lines, values behind:

SMILES: CC(C)[C@H](NC(=O)c1ccc(Cl)c(Cl)c1)C(=O)N1CCC[C@H]1C(=O)NCCc1ccccc1Cl
IC50 [2]: > 29.9 µM (inactive) | EC50 [3]: 1.45 µM (active) | IC50 [4]: 1.53 µM (active) | EC50 [5]: > 29.9 µM (inactive)

SMILES: CCN1CCN(C(=O)C(NS(=O)(=O)c2ccc3nc(C)sc3c2)C(C)C)CC1 (stereo not drawn)
AC50 [7]: > 150 µM (inactive)

SMILES: COc1ccc(NS(=O)(=O)c2ccc(NC(=S)NC(=O)C(C)C)cc2)cc1
IC50 [2]: 11.5 µM (inactive) | EC50 [3]: 1.99 µM (active) | IC50 [4]: 6.23 µM (active) | EC50 [5]: 19 µM (inactive)

SMILES: O=C(Nc1nc2c(s1)CCCC2)c1cccc(S(=O)(=O)N2CCCc3ccccc32)c1
AC50 [7]: 134 µM (active)

SMILES: Cc1cc(C)n(CCCNC(=O)COc2ccc([N+](=O)[O-])cc2)n1
AC50 [7]: 89.1 µM (active)

SMILES: CN1/C(=C\C(=O)C[n+]2ccc3ccccc3c2)C(C)(C)c2ccccc21
EC50 [11]: 505 nM (active) | EC50 [12]: > 60 µM (not active) | EC50 [13]: 5.31 µM (active) | IC50 [14]: > 80 µM (inactive)
